Measurements published in US20230322789A1, “PYRAZOLOPYRIDAZINONE COMPOUND, AND PHARMACEUTICAL COMPOSITION AND USE THEREOF” (BroadenBio Co., Ltd., priority 2020, published 2023).
Counter-ions that a name gives are not always drawn.

Legend:
[1] = tested on: Human Jurkat-E6-1 cells; test: Measurement of IL-2 secretion of Jurkat cells by ELISA; type: cell-based; conditions: Homo sapiens, Jurkat E6.1, anti-CD3/anti-CD28 stimulation 24 hours, read-out: Percentage of the amount of IL-2 secreted from compound treated/DMSO-treated cells; for activity at 1 µM: test compound 1.0 μM; for activity at 3 µM: test compound 3.0 μM
Method: 2. Measurement of IL-2 Secretion of Jurkat Cells by ELISA
Human Jurkat-E6-1 cells were incubated with various concentrations of test compounds for 30 minutes in a humidified incubator at 37° C. and […]. Cells were transferred to cell culture plates pre-coated with anti-human CD3 antibody, then soluble anti-human CD28 antibody was added, and cells were stimulated for 24 hours at 37° C. and 5% CO2 in a humidified incubator. The cell culture medium was collected by centrifugation, and was then transferred to a 96-well transparent microtiter plate (Thermo) pre-coated with anti-human IL-2 antibody, incubated at room temperature for 2 hours, and gently shaken, washed with washing buffer for 4 times, and then followed the ELISA MAX Deluxe Set Human IL-2 (BioLegend) kit procedure, used a microplate reader (Molecular Device, i3X) to read the GD value. The best standard curve was selected by the microplate reader application software, and the corresponding concentration was calculated according to the GD value of the standard. Results are expressed as a percentage of the amount of IL-2 secreted from compound-treated/DMSO-treated cells.

[2] = target: HPK1 (Homo sapiens (Human), UniProt Q92918); test: HPK1 kinase activity inhibition test (ADP-Glo, luminescence); type: biochemical; conditions: HPK1 5 nM, ATP 2 μM, read-out: IC50, inhibitory effects of compounds on HPK1 kinase activity
HPK1, sequence (Q92918 whole entry): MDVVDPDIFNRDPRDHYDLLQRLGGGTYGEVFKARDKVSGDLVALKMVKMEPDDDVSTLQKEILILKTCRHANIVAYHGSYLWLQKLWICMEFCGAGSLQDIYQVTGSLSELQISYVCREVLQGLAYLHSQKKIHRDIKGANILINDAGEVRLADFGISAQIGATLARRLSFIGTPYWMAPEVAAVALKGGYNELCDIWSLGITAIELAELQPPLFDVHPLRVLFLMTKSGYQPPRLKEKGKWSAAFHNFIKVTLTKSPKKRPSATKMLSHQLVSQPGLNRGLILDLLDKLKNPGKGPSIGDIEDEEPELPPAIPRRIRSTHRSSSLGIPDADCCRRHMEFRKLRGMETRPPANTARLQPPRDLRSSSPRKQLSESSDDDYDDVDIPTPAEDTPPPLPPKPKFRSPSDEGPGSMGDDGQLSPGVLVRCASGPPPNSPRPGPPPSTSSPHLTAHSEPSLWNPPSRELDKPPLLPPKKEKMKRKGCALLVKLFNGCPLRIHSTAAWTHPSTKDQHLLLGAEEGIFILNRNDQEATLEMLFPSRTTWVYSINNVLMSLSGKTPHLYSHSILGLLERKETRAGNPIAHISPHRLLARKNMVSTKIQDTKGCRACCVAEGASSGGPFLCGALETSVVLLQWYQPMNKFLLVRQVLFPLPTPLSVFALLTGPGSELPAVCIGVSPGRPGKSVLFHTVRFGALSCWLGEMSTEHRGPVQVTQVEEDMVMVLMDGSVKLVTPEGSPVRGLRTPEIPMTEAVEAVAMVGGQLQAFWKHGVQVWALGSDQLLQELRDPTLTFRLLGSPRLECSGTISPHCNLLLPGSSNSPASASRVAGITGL
Method: 1. HPK1 Kinase Activity Inhibition Test
The kinase activity of HPK1 is manifested as activity of autophosphorylation and phosphorylation of downstream substrates. In the process of autophosphorylation, additional substrates are not required, and ATP is consumed to generate ADP. The amount of the product was measured by ADP-Glo reagent and luminescence method to reflect kinase activity.
Test compounds: compounds prepared in the examples of this application.
Prepare compound stock solution: dissolve the compound to be tested in 100% DMSO to make a 10 mM stock solution;
Prepare 4× Kinase Reaction Buffer:
Prepare 2×HPK1 Kinase Solution:
Dilute the stock solution of the compound to be tested by 5 times with […], make a 4-fold equal dilution in a 96-well dilution plate, add 1 μL of the compound to 49 µL of kinase reaction buffer, and shake on a microplate shaker for 20 minutes. Transfer 2 μL of […] kinase solution to 384 reaction plate, add 1 μL of the test compound to the 384 reaction plate (Greiner, 784075), centrifuge for 1 minute (1000 rpm/min), incubate at 25° C. for 10 minutes. Transfer […] of the 4×ATP mixture to a 384 reaction plate, centrifuge for 1 minute (1000 rpm/mm), and incubate at 25° C. for 60 minutes. In the reaction system, the final concentration of DMSO was […]. Transfer 4 μL of ADP-Glo to a 384 reaction plate, centrifuge for 1 minute (1000 rpm/min), and incubate at 25° C. for 40 minutes. Transfer 8 μL detection solution to a 384 reaction plate, centrifuge for 1 minute (1000 rpm/min), and incubate at 25° C. for 40 minutes. The […] signal was read using a Biotek multi-function plate reader, and the […] (half inhibitory concentration) of the compound was obtained using a four-coefficient nonlinear fitting formula.

Structure (SMILES)	IC50 [2] [nM]	activity at 1 µM [1] [%]	activity at 3 µM [1] [%]	activity at 0.33 µM ([1]; test compound 0.33 μM) [%]
Cc1cccc(F)c1-n1nc2c(-c3ccc(N4CCN(C)CC4)cc3)n[nH]c2cc1=O [Compound 1, 5-(2-fluoro-6-methylphenyl)-3-(4-(4-methylpiperazin-1-yl)phenyl)-1H-pyrazolo[4,3-c]pyridazin-6(5H)-one]	≤ 50	277		
COc1cccc(C)c1-n1nc2c(-c3ccc(N4CCN(C)CC4)cc3)n[nH]c2cc1=O [Compound 2, 5-(2-methoxy-6-methylphenyl)-3-(4-(4-methylpiperazin-1-yl)phenyl)-1H-pyrazolo[4,3-c]pyridazin-6(5H)-one]	50 to 500		238	
COc1ccccc1-n1nc2c(-c3ccc(N4CCN(C)CC4)cc3)n[nH]c2cc1=O [Compound 3, 5-(2-methoxyphenyl)-3-(4-(4-methylpiperazin-1-yl)phenyl)-1H-pyrazolo[4,3-c]pyridazin-6(5H)-one]	≤ 50	211		
Cc1ccccc1-n1nc2c(-c3ccc(N4CCN(C)CC4)cc3)n[nH]c2cc1=O [Compound 5, 5-(2-methylphenyl)-3-(4-(4-methylpiperazin-1-yl)phenyl)-1H-pyrazolo[4,3-c]pyridazin-6(5H)-one]	50 to 500	162		
CN1CCN(c2ccc(-c3n[nH]c4cc(=O)n(-c5ccccc5F)nc34)cc2)CC1 [Compound 6, 5-(2-fluorophenyl)-3-(4-(4-methylpiperazin-1-yl)phenyl)-1H-pyrazolo[4,3-c]pyridazin-6(5H)-one]	≤ 50	185		
CN1CCN(c2ccc(-c3n[nH]c4cc(=O)n(-c5ccccc5Cl)nc34)cc2)CC1 [Compound 7, 5-(2-chlorophenyl)-3-(4-(4-methylpiperazin-1-yl)phenyl)-1H-pyrazolo[4,3-c]pyridazin-6(5H)-one]	50 to 500	314		
CCc1cccc(F)c1-n1nc2c(-c3ccc(N4CCN(C)CC4)cc3)n[nH]c2cc1=O [Compound 8, 5-(2-ethyl-6-fluorophenyl)-3-(4-(4-methylpiperazin-1-yl)phenyl)-1H-pyrazolo[4,3-c]pyridazin-6(5H)-one]	≤ 50			306
COc1cccc(F)c1-n1nc2c(-c3ccc(N4CCN(C)CC4)cc3)n[nH]c2cc1=O [Compound 9, 5-(2-fluoro-6-methoxyphenyl)-3-(4-(4-methylpiperazin-1-yl)phenyl)-1H-pyrazolo[4,3-c]pyridazin-6(5H)-one]	≤ 50		188	
Cc1cccc(F)c1-n1nc2c(-c3ccc(N4CCN(C)CC4)nc3)n[nH]c2cc1=O [Compound 11, 5-(2-fluoro-6-methylphenyl)-3-(6-(4-methylpiperazin-1-yl)pyrid-3-yl)-1H-pyrazolo[4,3-c]pyridazin-6(5H)-one]	50 to 500	296		
Cc1cc(-c2n[nH]c3cc(=O)n(-c4c(C)cccc4F)nc23)cc(C)c1N1CCN(C)CC1 [Compound 13]	50 to 500		315	
COc1cc(-c2n[nH]c3cc(=O)n(-c4c(C)cccc4F)nc23)ccc1N1CCN(C)CC1 [Compound 14, 5-(2-fluoro-6-methylphenyl)-3-(3-methoxy-4-(4-methylpiperazin-1-yl)phenyl)-1H-pyrazolo[4,3-c]pyridazin-6(5H)-one]	50 to 500		255	
CCc1cccc(F)c1-n1nc2c(-c3ccc(N4CCN(CC(C)(C)O)CC4)cc3)n[nH]c2cc1=O [Compound 116, 5-(2-ethyl-6-fluorophenyl)-3-(4-(4-(2-hydroxyl-2-methylpropyl)piperazin-1-yl)phenyl)-1H-pyrazolo[4,3-c]pyridazin-6(5H)-one]		193		
Cc1cccc(F)c1-n1nc2c(-c3ccc(N4CCN5C(=O)OCC5C4)nc3)n[nH]c2cc1=O (stereo not drawn) [Compound 129, 7-(5-(5-(2-fluoro-6-methylphenyl)-6-oxo-5,6-dihydro-1H-pyrazolo[4,3-c]pyridazin-3-yl)pyridin-2-yl)tetrahydro-1H-oxazolo[3,4-a]pyrazin-3(5H)-one]			807	
COc1cccc(F)c1-n1nc2c(-c3cc4c(cc3F)CCN(C)C4)n[nH]c2cc1=O [Compound 191, 3-(6-fluoro-2-methyl-1,2,3,4-tetrahydroisoquinolin-7-yl)-5-(2-fluoro-6-methoxyphenyl)-1H-pyrazolo[4,3-c]pyridazin-6(5H)-one]	50 to 500			
Cc1cccc(F)c1-n1nc2c(-c3cccc(N4CC5CCC(C4)N5C)c3)n[nH]c2cc1=O [Compound 201, 5-(2-fluoro-6-methylphenyl)-3-(3-(8-methyl-3,8-diazabicyclo[3.2.1]octan-3-yl)phenyl)-1H-pyrazolo[4,3-c]pyridazin-6(5H)-one]	≤ 50			
COc1cc(C#N)cc(F)c1-n1nc2c(-c3cccc(N4CC5CCC(C4)N5C)c3)n[nH]c2cc1=O [Compound 203, 3-fluoro-5-methoxy-4-(3-(3-(8-methyl-3,8-diazabicyclo[3.2.1]octan-3-yl)phenyl)-6-oxo-1H-pyrazolo[4,3-c]pyridazin-5(6H)-yl)benzonitrile]	≤ 50			

Continued, in another order:

IC50 [2] [nM]	Structure (SMILES)	activity at 1 µM [1] [%]	activity at 3 µM [1] [%]	activity at 0.33 µM ([1]; test compound 0.33 μM) [%]
≤ 50	Cc1cccc(F)c1-n1nc2c(-c3ccc4c(c3)CCN(C3CN(C)C3)C4)n[nH]c2cc1=O [Compound 194, 5-(2-fluoro-6-methylphenyl)-3-(2-(1-methylazetidin-3-yl)-1,2,3,4-tetrahydroisoquinolin-6-yl)-1H-pyrazolo[4,3-c]pyridazin-6(5H)-one]			
50 to 500	Cc1cccc(F)c1-n1nc2c(-c3ccc4c(c3)CCN(C3CCOCC3)C4)n[nH]c2cc1=O [Compound 195, 5-(2-fluoro-6-methylphenyl)-3-(2-(tetrahydro-2H-pyran-4-yl)-1,2,3,4-tetrahydroisoquinolin-6-yl)-1H-pyrazolo[4,3-c]pyridazin-6(5H)-one]			
50 to 500	Cc1cccc(F)c1-n1nc2c(-c3ccc4c(c3)CCN(C3CCN(C)CC3)C4)n[nH]c2cc1=O [Compound 196, 5-(2-fluoro-6-methylphenyl)-3-(2-(1-methylpiperidin-4-yl)-1,2,3,4-tetrahydroisoquinolin-6-yl)-1H-pyrazolo[4,3-c]pyridazin-6(5H)-one hydrochloride]			
≤ 50	Cc1cccc(F)c1-n1nc2c(-c3ccc4c(c3)CN(C)C4)n[nH]c2cc1=O [Compound 197, 5-(2-fluoro-6-methylphenyl)-3-(2-methylisoindolin-5-yl)-1H-pyrazolo[4,3-c]pyridazin-6(5H)-one]			
≤ 50	COc1cccc(F)c1-n1nc2c(-c3cccc(N4CCC(N)CC4)c3)n[nH]c2cc1=O [Compound 205, 3-(3-(4-aminopiperidin-1-yl)phenyl)-5-(2-fluoro-6-methoxyphenyl)-1H-pyrazolo[4,3-c]pyridazin-6(5H)-one]			
50 to 500	COc1cccc(F)c1-n1nc2c(-c3cccc(N4CCC(O)CC4)c3)n[nH]c2cc1=O [Compound 206, 3-(3-(4-hydroxylpiperidin-1-yl)phenyl)-5-(2-fluoro-6-methoxyphenyl)-1H-pyrazolo[4,3-c]pyridazin-6(5H)-one]			
500 to 2000	Cc1cccc(F)c1-n1nc2c(-c3cccc(N4CCN(C)CC4)c3F)n[nH]c2cc1=O [Compound 207, 3-(2-fluoro-3-(4-methylpiperazin-1-yl)phenyl)-5-(2-fluoro-6-methylphenyl)-1H-pyrazolo[4,3-c]pyridazin-6(5H)-one]			
≤ 50	Cc1cccc(F)c1-n1nc2c(-c3cc(N4CCN(C)CC4)ccc3F)n[nH]c2cc1=O [Compound 208, 3-(2-fluoro-5-(4-methylpiperazin-1-yl)phenyl)-5-(2-fluoro-6-methylphenyl)-1H-pyrazolo[4,3-c]pyridazin-6(5H)-one]			
50 to 500	COc1cccc(F)c1-n1nc2c(-c3cccc(N4CCN(C)CC4)c3F)n[nH]c2cc1=O [Compound 209, 3-(2-fluoro-3-(4-methylpiperazin-1-yl)phenyl)-5-(2-fluoro-6-methoxyphenyl)-1H-pyrazolo[4,3-c]pyridazin-6(5H)-one]			
